Consider 37 molecules from US9290457B2, “Substituted dihydropyrimidinones and their use as inhibitors of neutrophil elastase activity” (Boehringer Ingelheim International GmbH, priority 2014, dated 2016).

The target of this assay is neutrophil elastase (Homo sapiens (Human), UniProt P08246). In words: Human Neutrophil Elastase Assay. The format is biochemical. The following applies: substrate MeOSuc-Ala-Ala-Pro-Val-AMC.
Chain of neutrophil elastase (P08246 30-247): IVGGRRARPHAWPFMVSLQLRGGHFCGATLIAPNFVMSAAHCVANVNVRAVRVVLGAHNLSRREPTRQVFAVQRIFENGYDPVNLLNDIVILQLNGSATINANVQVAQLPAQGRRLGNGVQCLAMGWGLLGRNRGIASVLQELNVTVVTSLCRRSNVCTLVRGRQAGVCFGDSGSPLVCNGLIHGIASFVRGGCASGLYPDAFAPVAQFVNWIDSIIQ
`CC(=O)C1=C(C)N(c2cccc(C(F)(F)F)c2)C(=O)N(C)C1c1ccc(C#N)cc1C(=O)NCc1ccco1` (stereo not shown) [Example 1.35]: the half-inhibitory concentration (IC50) (in general, the concentration needed to halve the response being measured) is under 1 nM.

Take `CC(=O)C1=C(C)N(c2cccc(C(F)(F)F)c2)C(=O)N(C)C1c1ccc(C#N)cc1-c1ccncc1` (stereo not shown) [Example 5.10]: it took 1.3 nM to reach half-maximal inhibition (IC50). Molecule `CCNC(=O)c1cc(C#N)ccc1C1C(C(C)=O)=C(C)N(c2cccc(C(F)(F)F)c2)C(=O)N1C` (stereo not shown) [Example 1.4] displayed an IC50 of under 1 nM. Molecule `CC(=O)C1=C(C)N(c2cccc(C(F)(F)F)c2)C(=O)N(C)C1c1ccc(C#N)cc1C(=O)NCc1cnco1` (stereo not shown) [Example 1.40] came in with a concentration for half-maximal inhibition (IC50) of under 1 nM. The value for `CC(=O)C1=C(C)N(c2cccc(C(F)(F)F)c2)C(=O)N(C)C1c1ccc(C#N)cc1C(=O)NCc1cncn1C` (stereo not shown) [Example 1.52] was under 1 nM; that for `CCOC(=O)C1=C(C)N(c2cccc(C(F)(F)F)c2)C(=O)N(C)C1c1ccc(C#N)cc1C(=O)N1CC[C@@H](N(C)C)C1` (stereo partly shown) [Example 3.37] was 2.8 nM; that for `CC(=O)C1=C(C)N(c2cccc(C(F)(F)F)c2)C(=O)N(C)C1c1ccc(C#N)cc1C(=O)NCCO` (stereo not shown) [Example 1.9] was under 1 nM. The value for `CCOC(=O)C1=C(C)N(c2cccc(C(F)(F)F)c2)C(=O)N(C)C1c1ccc(C#N)cc1C(=O)NCCN(C)C` (stereo not shown) [Example 3.35] was under 1 nM; that for `CCOC(=O)C1=C(C)N(c2cccc(C(F)(F)F)c2)C(=O)N(C)C1c1ccc(C#N)cc1C(=O)NC1CCNCC1` (stereo not shown) [Example 4.2] was 1.7 nM.

In turn, `CC(=O)C1=C(C)N(c2cccc(C(F)(F)F)c2)C(=O)N(C)C1c1ccc(C#N)cc1C(=O)N1CCN(C2CC2)CC1` (stereo not shown) [Example 1.81] showed an IC50 of 8.8 nM. The figure for `CCOC(=O)C1=C(C)N(c2cccc(C(F)(F)F)c2)C(=O)N(C)C1c1ccc(C#N)cc1C(N)=O` (stereo not shown) [Example 3.3] is 3 nM; for `CC(=O)C1=C(C)N(c2cccc(C(F)(F)F)c2)C(=O)N(C)C1c1ccc(C#N)cc1C(=O)N1CCn2cncc2C1` (stereo not shown) [Example 1.69] it is under 1 nM; for `CNCCN(C)C(=O)c1cc(C#N)ccc1C1C(C(C)=O)=C(C)N(c2cccc(C(F)(F)F)c2)C(=O)N1C` (stereo not shown) [Example 2.12] it is under 1 nM. Molecule `CC(=O)C1=C(C)N(c2cccc(C(F)(F)F)c2)C(=O)N(C)C1c1ccc(C#N)cc1C(=O)NC1CCOCC1` (stereo not shown) [Example 1.24] came in with an IC50 of under 1 nM. `CC(=O)C1=C(C)N(c2cccc(C(F)(F)F)c2)C(=O)N(C)C1c1ccc(C#N)cc1C(=O)N(C)Cc1ccno1` (stereo not shown) [Example 1.60] registered a concentration for half-maximal inhibition (IC50) of under 1 nM. The figure for `CCOC(=O)C1=C(C)N(c2cccc(C(F)(F)F)c2)C(=O)N(C)C1c1ccc(C#N)cc1C(=O)N1CCOCC1` (stereo not shown) [Example 3.22] is 2 nM; for `CC(=O)C1=C(C)N(c2cccc(C(F)(F)F)c2)C(=O)N(C)C1c1ccc(C#N)cc1C(=O)NCc1ccccc1` (stereo not shown) [Example 1.45] it is 1 nM. The figure for `CC(=O)C1=C(C)N(c2cccc(C(F)(F)F)c2)C(=O)N(C)C1c1ccc(C#N)cc1C(=O)NC1CCS(=O)(=O)C1` (stereo not shown) [Example 1.31] is under 1 nM.

The molecule `CCOC(=O)C1=C(C)N(c2cccc(C(F)(F)F)c2)C(=O)N(C)C1c1ccc(C#N)cc1C(=O)N[C@H]1CCNC1` (stereo partly shown) [Example 4.10] displayed a half-inhibitory concentration (IC50) of 1.2 nM. The value for `COCCN(C)C(=O)c1cc(C#N)ccc1C1C(C(C)=O)=C(C)N(c2cccc(C(F)(F)F)c2)C(=O)N1C` (stereo not shown) [Example 1.21] was under 1 nM; that for `CCOC(=O)C1=C(C)N(c2cccc(C(F)(F)F)c2)C(=O)N(C)C1c1ccc(C#N)cc1C(=O)N1CCN(CC)CC1` (stereo not shown) [Example 3.2] was 3 nM; that for `CC(=O)C1=C(C)N(c2cccc(C(F)(F)F)c2)C(=O)N(C)C1c1ccc(C#N)cc1C(N)=O` (stereo not shown) [Example 1, 2-[5-Acetyl-3,6-dimethyl-2-oxo-1-(3-trifluoromethyl-phenyl)-1,2,3,4-tetrahydro-pyrimidin-4-yl]-5-cyano-benzamide] was under 1 nM. The figure for `CC(=O)C1=C(C)N(c2cccc(C(F)(F)F)c2)C(=O)N(C)C1c1ccc(C#N)cc1C(=O)N1CCC(O)CC1` (stereo not shown) [Example 1.26] is 4.7 nM; for `CCOC(=O)C1=C(C)N(c2cccc(C(F)(F)F)c2)C(=O)N(C)C1c1ccc(C#N)cc1C(=O)N[C@@H]1CCNC1` (stereo partly shown) [Example 4.11] it is 1.1 nM; for `CC(=O)C1=C(C)N(c2cccc(C(F)(F)F)c2)C(=O)N(C)C1c1ccc(C#N)cc1C(=O)NCCN(C)C` (stereo not shown) [Example 1.84] it is under 1 nM. The value for `CC(=O)C1=C(C)N(c2cccc(C(F)(F)F)c2)C(=O)N(C)C1c1ccc(C#N)cc1-c1ccoc1` (stereo not shown) [Example 5, 4-[5-Acetyl-3,6-dimethyl-2-oxo-1-(3-trifluoromethyl-phenyl)-1,2,3,4-tetrahydro-pyrimidin-4-yl]-3-furan-3-yl-benzonitrile] was 2.6 nM; that for `CC(=O)C1=C(C)N(c2cccc(C(F)(F)F)c2)C(=O)N(C)C1c1ccc(C#N)cc1C(=O)NCc1cnn(C)c1` (stereo not shown) [Example 1.54] was under 1 nM. In turn, `CC(=O)C1=C(C)N(c2cccc(C(F)(F)F)c2)C(=O)N(C)C1c1ccc(C#N)cc1C(=O)N1CCOCC1` (stereo not shown) [Example 1.3] had a 50% inhibitory concentration (IC50) of 2.25 nM. The value for `CCOC(=O)C1=C(C)N(c2cccc(C(F)(F)F)c2)C(=O)N(C)C1c1ccc(C#N)cc1C(=O)NC12CCC1C2` (stereo not shown) [Example 3.19] was under 1 nM. The figure for `CC(=O)C1=C(C)N(c2cccc(C(F)(F)F)c2)C(=O)N(C)C1c1ccc(C#N)cc1-c1cncc(F)c1` (stereo not shown) [Example 5.15] is under 1 nM; for `CCOC(=O)C1=C(C)N(c2cccc(C(F)(F)F)c2)C(=O)N(C)C1c1ccc(C#N)cc1C(=O)NC1CCN(C(C)C)C1` (stereo not shown) [Example 3.44] it is 1.1 nM. The value for `CC(=O)C1=C(C)N(c2cccc(C(F)(F)F)c2)C(=O)N(C)C1c1ccc(C#N)cc1C(=O)NCc1cccnn1` (stereo not shown) [Example 1.50] was under 1 nM; that for `CC(=O)C1=C(C)N(c2cccc(C(F)(F)F)c2)C(=O)N(C)[C@@H]1c1ccc(C#N)cc1C(N)=O` [Example 13, 2-[(R)-5-Acetyl-3,6-dimethyl-2-oxo-1-(3-trifluoromethyl-phenyl)-1,2,3,4-tetrahydro-pyrimidin-4-yl]-5-cyano-benzamide] was under 1 nM. Molecule `CC(=O)C1=C(C)N(c2cccc(C(F)(F)F)c2)C(=O)N(C)C1c1ccc(C#N)cc1C(=O)N(C)Cc1cnn(C)c1` (stereo not shown) [Example 1.30] gave a 50% inhibitory concentration (IC50) of under 1 nM. The value for `CC(=O)C1=C(C)N(c2cccc(C(F)(F)F)c2)C(=O)N(C)C1c1ccc(C#N)cc1-c1nnco1` (stereo not shown) [Example 6, 4-[5-Acetyl-3,6-dimethyl-2-oxo-1-(3-trifluoromethyl-phenyl)-1,2,3,4-tetrahydro-pyrimidin-4-yl]-3-[1,3,4]oxadiazol-2-yl-benzonitrile] was under 1 nM. In turn, `CCOC(=O)C1=C(C)N(c2cccc(C(F)(F)F)c2)C(=O)N(C)C1c1ccc(C#N)cc1C(=O)NC1CCN(C)C1` (stereo not shown) [Example 4.18] returned an IC50 of 1.3 nM. The figure for `CCOC(=O)C1=C(C)N(c2cccc(C(F)(F)F)c2)C(=O)N(C)C1c1ccc(C#N)cc1C1=COCC1` (stereo not shown) [Example 14.4] is 1.9 nM.
